Drawing on PubChem BioAssay (NCI), this text covers GI50 and TGI for 44 compounds.

Structures are written as SMILES. “And” between values parts separate entries of the source, which are not always exact repeats. Equal values may be shown once.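 Five concentrations, 48 hours, 96-well plates. GI50 = concentration required for 50% inhibition of growth. TGI: concentration producing complete growth inhibition.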

The subject of this experiment is MDA-MB-468 breast. Briefly: growth of human tumour cells (NCI), 48 h.
`CN(CCCNC(=O)CCOCCOCCOCCNC(=O)Cc1ccc2ccc3cccc4ccc1c2c34)CCCNc1cc(-c2ccc3ccccc3c2)nc2ccccc12`: the GI50 is 509 nM and the TGI came to 1.03 µM.

For the compound `CCN(CC)Cc1cc2[nH]c3c4ccc(Cl)cc4ncc3c2cc1OC`, the GI50 was 1870 nM and 1520 nM; the TGI was 3.64 µM and 3 µM.

As for `NC(=S)c1c(N)n(C2OC(CO)C(O)C2O)c2ncnc(N)c12` (configuration not stated), the GI50 is 135 nM and the TGI turned out to be 0.326 µM.

As to `Cc1cc(Cl)nc(N(CCCNc2ccnc3cc(Cl)ccc23)Cc2ccco2)n1`, the GI50 was 1120 nM and the TGI worked out at 3.94 µM.

Regarding `CO[C@H]1C[C@@H]2CC[C@@H](C)[C@@](O)(O2)C(=O)C(=O)N2CCCC[C@H]2C(=O)O[C@H]([C@H](C)C[C@@H]2CC[C@@H](OCCO)[C@H](OC)C2)CC(=O)[C@H](C)C=C(C)[C@@H](O)[C@@H](OC)C(=O)[C@H](C)C[C@H](C)/C=C/C=C/C=C1C`, the GI50 is under 11.7 nM and the TGI is 14.9 µM.

`O=c1oc2ccc(-c3ccc(F)cc3F)cc2c(=O)n1-c1ccc(F)c(F)c1`: the GI50 was 1010 nM and the TGI stood at 4.23 µM.

Regarding `CN(CC(=O)N(Cc1ccc(C2CCCCC2)cc1)c1ccc(C(=O)O)cc1)S(=O)(=O)c1c(F)c(F)c(F)c(F)c1F`, the GI50 was 1760 nM and the TGI turned out to be 3.27 µM.

As for `c1ccc2c3c([nH]c2c1)C(c1ccc(C2NCCc4c2[nH]c2ccccc42)cc1)NCC3` (configuration not stated), the GI50 is 367 nM and the TGI amounted to 1.34 µM.

Consider `CN1CCN(c2nc(-c3cnc4ccccc4n3)cc3ccccc23)CC1`, for which the GI50 was 4980 nM and the TGI worked out at 10.6 µM.

Consider `COc1cc2c(=O)[nH]c3cc([N+](=O)[O-])ccc3c2cc1[N+](=O)[O-]`, for which the GI50 is 1030 nM and the TGI turned out to be 4.18 µM.

As for `CC[C@H](C)[C@H](NC(=O)[C@H]1CCCCN1C)C(=O)N(C)[C@H](C[C@@H](OC(C)=O)c1nc(C(=O)N[C@@H](Cc2ccccc2)C[C@H](C)C(=O)O)cs1)C(C)C`, the GI50 was 0.378 nM and 1.65 nM; the TGI turned out to be 0.00398 µM.

With `O=C(COc1cccc(/C=C2\CSc3ccccc3C2=O)c1)Nc1nccs1`, the GI50 is 1590 nM and the TGI turned out to be 3.15 µM.

Consider `Cn1ncc(Cl)c1-c1cc(C(=O)N[C@H](CN)Cc2ccc(F)c(F)c2)oc1Cl`, for which the GI50 is < 16.9 nM and 19.4 nM; the TGI is 0.282 µM and 0.458 µM.

In the case of `O=[N+]([O-])c1cccc(C2CC(c3ccccc3)=Nc3ccccc3S2)c1` (configuration not stated), the GI50 is 13400 nM and the TGI is 31.2 µM.

For the compound `CCOC(=O)c1cnc2c(C)cccc2c1Nc1ccc(C(C)=O)cc1`, the GI50 is 26300 nM and the TGI was over 100 µM.

With `COc1cc(-c2nn(-c3cccc(NC(=O)c4ccc(Cl)c(C(F)(F)F)c4)c3)cc2-c2ccncc2)ccc1Cl`, the GI50 was 2740 nM and the TGI is over 32.5 µM.

`Cn1cc(C2=C(c3cn(CCCCCSC(=N)N)c4ccccc34)C(=O)NC2=O)c2ccccc21`: the GI50 was 1550 nM and the TGI turned out to be 5.46 µM.

With `CN(Cc1cnc2nc(N)nc(N)c2n1)c1ccc(C(=O)NC(CCC(=O)O)C(=O)O)cc1Br` (configuration not stated), the GI50 is under 10 nM and the TGI was 1.91 µM.

As to `O=C(CN1C(=O)S/C(=C\C(Cl)=C\c2ccccc2)C1=O)NC1C=CS(=O)(=O)C1` (configuration not stated), the GI50 was 531 nM and the TGI came to 2.29 µM.

On to `COc1ccc(N=N/C(C(=O)C(F)(F)F)=C(\O)c2ccc(Cl)cc2)cc1`, for which the GI50 was 1840 nM and the TGI is 5.68 µM.

With `COc1ccc(N(C)c2nc(N)nc3sc4c(c23)CCCC4)cc1`, the GI50 was under 10 nM.

As for `CN1CSC(=S)N(Cc2ccccc2)C1`, the GI50 was 2020 nM and the TGI amounted to 6.03 µM.

For the compound `O=C(Nc1nc2ccccc2s1)Nc1ccc([N+](=O)[O-])cc1Cl`, the GI50 is 10100 nM and the TGI is 27.2 µM.

Take `CC[n+]1c(/C=C/C=C2\N(C)c3ccccc3C2(C)C)sc2ccccc21`: the GI50 is 2770 nM and the TGI is 8.44 µM.

Consider `Cn1ncc2ncc(-c3ccc4ncc(C#N)c(N5CCc6cc(F)c(Cl)cc65)c4c3)cc21`, for which the GI50 is 2440 nM and the TGI was found to be 10.6 µM.

Consider `CCn1c(-c2nonc2N)nc2cncc(C(=O)N3CC[C@H](N)C3)c21`, for which the GI50 is 4570 nM and the TGI turned out to be 24.5 µM.

For `Oc1[nH]c2ccccc2c1/C=c1/cc2c(c(-c3ccc(F)cc3)n1)=Nc1ccccc1-2`, the GI50 is 282 nM and the TGI amounted to 0.978 µM.

Take `Cc1cc([N+](=O)[O-])c2ccccc2[n+]1[O-]`: the GI50 was 180 nM and 121 nM; the TGI is 0.512 µM and 0.369 µM.

Turning to `CCN1CCN(C(=O)[C@]23CCC(C)(C)C[C@@H]2C2=CC[C@@H]4[C@@]5(C)C/C(=C/c6ccncc6)C(=O)C(C)(C)[C@@H]5CC[C@@]4(C)[C@]2(C)CC3)CC1`, the GI50 was 1430 nM and the TGI is 3.14 µM.

Take `COC(=O)c1ccc(NC(=O)Oc2ccc(N(CCCl)CCCl)cc2)cc1`: the GI50 was 1220 nM and the TGI was determined as 9.77 µM.

Turning to `N#CC1c2ccccc2C=CN1C(=O)N(c1ccccc1)c1ccccc1` (configuration not stated), the GI50 is 1700 nM and the TGI came out at 3.4 µM.

In the case of `C=CC(=O)N1CC2(CC(n3nc(-c4ccc5c(cnn5C)c4)c(-c4c(Cl)c(C)cc5[nH]ncc45)c3C)C2)C1`, the GI50 was 2670 nM and the TGI amounted to 9.27 µM.

Consider `N=c1c2c(=N)n3c(nc2nc2n1-c1ccccc1Sc1ccccc1-2)sc1cc(Cl)ccc13`, for which the GI50 is 1340 nM and the TGI came to 5.41 µM.

For the compound `COc1nnc2ccc(N3CCC(c4ccc(OCCN5CCN(C)C(=O)[C@H]5C)cc4)CC3)nn12`, the GI50 is 52 nM and the TGI was over 34.8 µM.

As to `O=C1/C=C/[C@@H](O)[C@@H]2C[C@@H](O)C[C@H]2/C=C/CCC[C@H](C(F)(F)F)O1`, the GI50 is 23.3 nM and the TGI stood at 0.0691 µM.

Take `CCCCCCCCCCCC[n+]1ccc2ccccc2c1`: the GI50 was 206 nM and the TGI came to 0.808 µM.

For `CC1OC(O[C@@H]2[C@H](O)C(CO)OC(O[C@H]3COC(O[C@H]4CC[C@]5(C)[C@H]6CC[C@]78OC[C@@]9(CCC(C)(C)C[C@H]97)[C@H](O)C[C@@]8(C)[C@]6(C)CC[C@H]5C4(C)C)[C@@H](OC4OC(CO)[C@@H](O)[C@@H](O)[C@@H]4O)[C@@H]3O)[C@H]2OC2OC[C@@H](O)[C@@H](O)[C@@H]2O)[C@@H](O)[C@@H](O)[C@H]1O` (some centres not stated), the GI50 is 2110 nM and the TGI is 4.33 µM.

As for `CSc1ccc2c(c1)C(N1CCN(C)CC1)Cc1ccccc1S2` (configuration not stated), the GI50 was 1470 nM and the TGI was determined as 3.06 µM.

Take `COc1ccc(/C(C#N)=C2C=C/C(=N/O)c3ccccc3\2)cc1`: the GI50 was 395 nM and the TGI was determined as 16.5 µM.

Consider `Cn1c(-c2c(N)n(CCCN3CCOCC3)c3nc(C#N)c(C#N)nc23)nc2ccccc21`, for which the GI50 was 4640 nM and the TGI is over 100 µM.

Take `O=C1NC(=NCCCc2ccccc2)S/C1=C\c1ccc2ncccc2c1`: the GI50 is 4370 nM and the TGI turned out to be 17.4 µM.

For `CN1CCN(CCCOc2cccc3nc(Nc4ccc(Cl)c(C(F)(F)F)c4)ccc23)CC1`, the GI50 is 1600 nM and the TGI came out at 3.22 µM.

Take `CC(=O)c1c(C)[nH]c(-c2nc3ccc(N4CCN(C)CC4)cc3[nH]2)c1-c1ccccc1`: the GI50 was 361 nM and the TGI was found to be 9.27 µM.

As for `COc1cc2nc3cc([N+](=O)[O-])ccc3c(NCCNCC(C)(C)O)c2cc1OC`, the GI50 is 220 nM and the TGI stood at 0.614 µM.
